Source: patent US9682960B2 (priority 2013, dated 2017)
Several values for one entry are separate records, joined by “and”; a condition that tells them apart may be missing. Equal entries are not always repeated.

Tests used:
[1] = system: castrated (CX) immature male rats; experiment: Systemic androgenic (agonistic) activity in orchidectomized (CX) immature male rats; format: in vivo, rat
Human Androgen Receptor = Human Androgen Receptor (Homo sapiens (Human), UniProt P10275); experiment: Androgen receptor assay: [3H]R1881 displacement, cytosol of HEK-293 cells transfected with hAR (hydroxylapatite assay); format: binding; details: for Human Androgen Receptor Binding RBA (%) R1881 = 100: relative binding affinity; for times more potent than OH-flutamide on the human AR (RBA ratio): versus hydroxyflutamide
Sequence of Human Androgen Receptor (P10275 whole entry): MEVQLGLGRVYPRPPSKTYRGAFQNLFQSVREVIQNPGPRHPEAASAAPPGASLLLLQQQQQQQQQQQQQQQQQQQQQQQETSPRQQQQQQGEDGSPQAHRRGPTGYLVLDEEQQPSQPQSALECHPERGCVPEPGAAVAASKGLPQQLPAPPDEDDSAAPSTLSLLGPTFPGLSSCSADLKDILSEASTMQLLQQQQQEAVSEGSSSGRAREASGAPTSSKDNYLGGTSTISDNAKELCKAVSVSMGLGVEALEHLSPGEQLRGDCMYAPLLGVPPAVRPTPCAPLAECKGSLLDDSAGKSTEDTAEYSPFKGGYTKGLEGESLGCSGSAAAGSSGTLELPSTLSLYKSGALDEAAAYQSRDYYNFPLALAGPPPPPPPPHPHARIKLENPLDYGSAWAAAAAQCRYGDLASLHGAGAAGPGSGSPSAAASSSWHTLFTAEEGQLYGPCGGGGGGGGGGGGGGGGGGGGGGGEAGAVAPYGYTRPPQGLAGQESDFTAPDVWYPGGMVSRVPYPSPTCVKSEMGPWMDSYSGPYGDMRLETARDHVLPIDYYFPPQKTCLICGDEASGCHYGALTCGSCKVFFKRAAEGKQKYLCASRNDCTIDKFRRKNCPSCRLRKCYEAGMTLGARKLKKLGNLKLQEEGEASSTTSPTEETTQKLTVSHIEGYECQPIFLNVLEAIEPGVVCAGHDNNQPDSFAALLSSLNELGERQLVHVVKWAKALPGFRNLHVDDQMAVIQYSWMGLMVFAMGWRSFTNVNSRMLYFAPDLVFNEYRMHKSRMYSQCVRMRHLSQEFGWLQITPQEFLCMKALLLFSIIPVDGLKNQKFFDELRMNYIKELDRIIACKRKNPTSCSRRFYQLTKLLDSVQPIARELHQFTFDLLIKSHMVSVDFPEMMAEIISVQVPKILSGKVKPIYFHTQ

[2] = system: Shionogi mouse mammary carcinoma cells; experiment: In vitro androgenic/antiandrogenic activity: proliferation of Shionogi cells with or without DHT; format: cell-based; details: for IC50: Mus musculus, read-out: Shionogi Antiandrogenic Activity IC50, DHT (0.3 nM)-stimulated cell number
[3] = 0.1 mg/rat/po, 7 days, bulbocavernosus muscles weight
[4] = 0.1 mg/rat/po, 7 days, seminal vesicles weight
[5] = 0.1 mg/rat/po, 7 days, ventral prostate weight

Row | SMILES | CX Agonistic activity % Stimulation Bulbo [1, 3] | CX Agonistic activity % Stimulation SV [1, 4] | CX Agonistic activity % Stimulation Prostate [1, 5] | Human Androgen Receptor Binding RBA (%) R1881 = 100 (Human Androgen Receptor; […]) | IC50 [2] | Human Androgen Receptor Binding RBA (%) R1881 = 100 (Human Androgen Receptor; transfected cells) | stimulation at 10^−7M on basal Shionogi cell proliferation (in words) ([2]; basal (no DHT), 10^−7M) | CX Agonistic activity % Stimulation Bulbo ([1]; 0.02 mg/rat po) | CX Agonistic activity % Stimulation Prostate ([1]; 0.02 mg/rat po) | CX Agonistic activity % Stimulation SV ([1]; 0.02 mg/rat po) | times more potent than OH-flutamide on the human AR (RBA ratio) (Human Androgen Receptor) | % of stimulation at 10^−7M on basal Shionogi cells ([2]; basal (no DHT), 10^−7M)
1 | Cc1c(N2C(=O)C(C)(C)N(CCCOc3ccc(-c4ccncc4F)cc3)C2=S)ccc(C#N)c1C(F)(F)F [EM-8974] | 139% | 24% | 61% | 41.9% | 112 nM | – | – | – | – | – | – | –
2 | Cc1c(N2C(=O)C(C)(C)N(CCCOc3ccc(-c4ccncc4Cl)cc3)C2=S)ccc(C#N)c1Cl [EM-8977] | 194% | 65% | 72% | 89.8% | 100 nM | – | – | – | – | – | – | –
3 | CC1(C)C(=O)N(c2ccc(C#N)c(C(F)(F)F)c2)C(=S)N1CCCOc1ccc2ncccc2c1 [EM-8990] | 3% | 1% | 0% | 53.6% | 9.7 nM | – | – | – | – | – | – | –
4 | CC1(C)C(=O)N(c2ccc(C#N)c(C(F)(F)F)c2)C(=S)N1CCCOc1ccc2cccnc2c1 [EM-8991] | 1% | 2% | 2% | 28.5% | 38.5 nM | – | – | – | – | – | – | –
5 | Cc1c(N2C(=O)C(C)(C)N(CCCOc3ccc(-c4ccc(N(C)C)nc4)cc3)C2=S)ccc(C#N)c1Cl [EM-8993] | 123% | 61% | 50% | – | 59.5 nM | 4.8% | – | – | – | – | – | –
6 | Cc1c(N2C(=O)C(C)(C)N(CCCOc3ccc(-c4ccc(N(C)C)nc4)c(F)c3)C2=S)ccc(C#N)c1Cl [EM-8996] | 131% | 53% | 49% | – | 100 nM | 48.9% | – | – | – | – | – | –
7 | CC1(C)C(=O)N(c2ccc(C#N)c(C(F)(F)F)c2)C(=S)N1CCCOc1ccc2ncncc2c1 [EM-9010] | 5% | 0% | 0% | 29.5% | 10 nM | – | – | – | – | – | – | –
8 | CC1(C)C(=O)N(c2ccc(C#N)c(C(F)(F)F)c2)C(=S)N1CCCOc1ccc2cnccc2c1 [EM-9021] | 9% | 0% | 1% | 166.8% | 5 nM | – | – | – | – | – | – | –
9 | CC1(C)C(=O)N(c2ccc(C#N)c(C(F)(F)F)c2)C(=S)N1CCCOc1ccc2c(ccc[n+]2[O-])c1 [EM-9028] | 1% | 2% | 2% | – | 2.6 nM | 25.3% | none of these compounds has any activity | – | – | – | – | –
10 | Cc1c(N2C(=O)C(C)(C)N(CCCOc3ccc(-c4cc[n+]([O-])cc4)c(Cl)c3)C2=S)ccc(C#N)c1Cl [EM-9036] | – | – | – | 131% | > 100 nM | – | – | 142 (0.02 mg/rat) % | 24 (0.02 mg/rat) % | 24 (0.02 mg/rat) % | – | –
11 | Cc1ccc2cc(OCCCN3C(=O)N(c4ccc(C#N)c(C(F)(F)F)c4)C(=O)C3(C)C)ccc2n1 [EM-9090] | 11% | 0% | 1% | 2.5% | 33.1 nM | – | – | – | – | – | – | –
12 | Cc1ccc2cc(OCCCN3C(=O)N(c4ccc(C#N)c(C(F)(F)F)c4)C(=O)C3(C)C)ccc2[n+]1[O-] [EM-9093] | 9% | 0% | 0% | 0.6% | 23.1 nM | – | – | – | – | – | – | –
13 | Cc1c(N2C(=O)N(CCCOc3ccc(-c4ccncc4)c(F)c3)C(C)(C)C2=O)ccc(C#N)c1Cl [EM-9253] | 114±18% and 114 ± 18 (n = 2) % | 18 ± 2 (n = 2) % | 34 ± 1 (n = 2) % | 125% | 29.9 nM | – | – | – | – | – | 595 times | –
14 | Cc1c(N2C(=O)N(CCCOc3ccc(-c4cc[n+]([O-])cc4)c(F)c3)C(C)(C)C2=O)ccc(C#N)c1Cl [EM-9254] | 101 ± 5 (n = 3) % | 23 ± 1 (n = 3) % | 47 ± 6 (n = 3) % | – | 54.8 nM | 38.8% | – | – | – | – | – | –
15 | Cc1c(N2C(=O)N(CCCOc3ccc(-c4ccncc4)c(Cl)c3)C(C)(C)C2=O)ccc(C#N)c1Cl [EM-9290] | 88±2% and 88 ± 12 (n = 2) % | 16 ± 2 (n = 2) % | 39 ± 6 (n = 2) % | – | 64.8 nM | 197% | – | – | – | – | 938 times | 25%
16 | Cc1c(N2C(=O)N(CCCOc3ccc(-c4cc[n+]([O-])cc4)c(Cl)c3)C(C)(C)C2=O)ccc(C#N)c1Cl [EM-9291] | 91 ± 2 (n = 2) % | 21 ± 7 (n = 2) % | 47 ± 7 (n = 2) % | – | 75.5 nM | 64.2% | – | – | – | – | – | –
17 | Cc1c(N2C(=O)N(CCCOc3ccc(-c4ccncc4)cc3F)C(C)(C)C2=O)ccc(C#N)c1Cl [EM-9297] | 120% | 26% | 31% | 101% | 72.8 nM | – | – | – | – | – | – | –
18 | Cc1c(N2C(=O)N(CCCOc3ccc(-c4ccncc4)cc3)C(C)(C)C2=O)ccc(C#N)c1Cl [EM-9300] | 127 ± 8 (n = 2) % | 25 ± 2 (n = 2) % | 40 ± 3 (n = 2) % | 77.8% | 62.2 nM | – | – | – | – | – | – | –
19 | Cc1c(N2C(=O)N(CCCOc3ccc(-c4cc[n+]([O-])cc4)cc3F)C(C)(C)C2=O)ccc(C#N)c1Cl [EM-9301] | 104 ± 17 (n = 2) % | 29 ± 2 (n = 2) % | 42 ± 1 (n = 2) % | 34.6% | 55.7 nM | – | – | – | – | – | – | –
20 | Cc1c(N2C(=O)N(CCCOc3ccc4ccc[n+]([O-])c4c3)C(C)(C)C2=O)ccc(C#N)c1Cl [EM-9302] | 57% | 8% | 29% | 1.3% | 110 nM | – | – | – | – | – | – | –
21 | Cc1c(N2C(=O)N(CCCOc3ccc(-c4cc[n+]([O-])cc4)cc3)C(C)(C)C2=O)ccc(C#N)c1Cl [EM-9305] | 110 ± 5 (n = 2) % | 28 ± 3 (n = 2) % | 34 ± 5 (n = 2) % | 26.2% | 32.3 nM | – | – | – | – | – | – | –
22 | Cc1c(N2C(=O)N(CCCOc3ccc(-c4ccncc4)cc3C(F)(F)F)C(C)(C)C2=O)ccc(C#N)c1Cl [EM-9309] | 107±9% and 107 ± 9 (n = 2) % | 24 ± 2 (n = 2) % | 36 ± 1 (n = 2) % | 157% | 66.9 nM | – | – | – | – | – | 748 times | 13%
23 | Cc1c(N2C(=O)N(CCCOc3ccc(-c4ccncc4Cl)cc3)C(C)(C)C2=O)ccc(C#N)c1Cl [EM-9310] | 109 ± 9 (n = 2) % | 18 ± 2 (n = 2) % | 44 ± 7 (n = 2) % | 92.8% | 60 nM | – | – | – | – | – | – | –
